From ChEMBL document CHEMBL1147505, “Efficient and chemoselective N-acylation of 10-amino-7-ethyl camptothecin with poly(ethylene glycol)” (2004)
Residues, ends and D or L forms follow the SMILES beside them. *: point of attachment. X2 = CCc1c2c(nc3ccc(N*)cc13)-c1cc3c(c(=O)n1C2)COC(=O)[C@]3(O)CC; X1 = COCCOC(=O)*

Columns and labels:
[1] = species: Mus musculus; experiment: Survival rate was determined as the ratio of mean survival days of treated group of mice to that of control group; format: functional
[2] = system: Mus musculus; experiment: Survival time of CDF1 mice inoculated with leukemia P388 cells determined after 40 days of intravenous administration of compound at 20 mg/kg on days 1, 5 and 9; format: functional

Compound	T/C [1]	Survival time [2]
CCc1c2c(nc3ccc(OC(=O)N4CCC(N5CCCCC5)CC4)cc13)-c1cc3c(c(=O)n1C2)COC(=O)[C@]3(O)CC [IRINOTECAN]	172%	–
COc1cccc2c1C(=O)c1c(O)c3c(c(O)c1C2=O)C[C@@](O)(C(=O)CO)C[C@@H]3O[C@H]1C[C@H](N)[C@H](O)[C@H](C)O1 [DOXORUBICIN]	>183%	>14 days
CCc1c2c(nc3ccc(NC(=O)CNC(=O)[C@H](Cc4ccccc4)NC(=O)[C@H](CC(C)C)NC(=O)CNC(=O)OCCOC)cc13)-c1cc3c(c(=O)n1C2)COC(=O)[C@]3(O)CC (X1-GLFG-X2)	170%	13 days
